Measured values as given in publication PMC10065799, “High-throughput profiling of sequence recognition by tyrosine kinases and SH2 domains using bacterial peptide display” (eLife, 2023).
Blank lines part the entries; values can stand above or below the sequence they belong to.

Legend:
Experiment in all cases: pTyr-Var library bacterial peptide display kinase screen (enrichment scores)
[1] = target: c-Src kinase domain (Homo sapiens, UniProt P12931); format: biochemical; details: sheet "Src";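 note: log2 fold change in enrichment of variant over reference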
[2] = test system: EPHB2 kinase domain; format: biochemical, human; details: sheet EPHB2;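 note: log2 fold change in enrichment of variant over reference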
[3] = target: T1, c-Abl kinase domain (Mus musculus, UniProt P00520); format: biochemical;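 note: log2 fold change in enrichment of variant over reference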
T1 sequence (P00520 242-493 limits assumed): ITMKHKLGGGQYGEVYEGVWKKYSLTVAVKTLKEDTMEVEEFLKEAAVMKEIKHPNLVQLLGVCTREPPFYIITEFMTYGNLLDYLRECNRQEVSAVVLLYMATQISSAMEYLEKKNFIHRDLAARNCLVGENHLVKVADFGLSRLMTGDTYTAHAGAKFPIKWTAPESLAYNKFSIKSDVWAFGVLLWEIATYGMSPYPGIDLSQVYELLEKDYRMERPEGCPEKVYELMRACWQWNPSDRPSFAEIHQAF

[4] = test system: Fer kinase domain; format: biochemical, mouse; details: sheet "Fer";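 note: log2 fold change in enrichment of variant over reference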
[5] = test system: EPHB1 kinase domain; format: biochemical, human; details: for Screen: sheet EPHB1, effect of the variant peptide relative to its reference peptide in the pTyr-Var library screen (enrichment scores)
[6] = variant peptide versus its reference peptide in the pTyr-Var library screen
[7] = effect of variant peptide relative to its reference peptide in the pTyr-Var library screen (enrichment scores)
[8] = fig5-data2, sheet "Abl", Screen for the variant/reference peptide pair, pTyr-Var library
[9] = sheet "Abl", effect of variant peptide relative to its reference peptide in pTyr-Var library screen (enrichment)
[10] = variant peptide relative to its reference peptide, pTyr-Var library screen enrichment
[11] = effect of the variant peptide relative to its reference peptide in the pTyr-Var library screen
[12] = value of the variant peptide against its reference peptide in the pTyr-Var library screen with Fer

Sequence: AEARMYGVLPW [PLP1_Y207_D203E]
Screen [1, 6]: -0.462 | Screen [2, 7]: -1.308

Sequence: CSEEMYCLMLQ [RET_Y981_R982C]
Screen [1, 6]: 1.894 | Screen [4, 10]: 3.517

Sequence: DLEKTYNTFRS [B4GALNT2_Y538_A533D_YF]
Screen [1, 11]: -0.01989

Sequence: EPFEVYRIVPE [IRF8_Y110_K108E_YF]
Screen [1, 11]: 2.655

Sequence: ERDTVYSSSGV [NELL2_Y350_N347D]
Screen [1, 6]: 1.43

Sequence: FDGGCYEQLFV [MC4R_Y41_S36Y_YF]
Screen [1, 11]: 0.4972 | Screen [4, 12]: 0.1035

Sequence: FFFDLYGGEKF [PTPN11_Y66_D61Y_YF]
Screen [1, 6]: -1.282

Sequence: FQKNSYSEELR [LMNA_Y211_I210S]
Screen [1, 11]: -2.048

Sequence: GRDVIYKGFED [NFU1_Y194_G190R]
Screen [1, 6]: -0.4839

Sequence: GVSFIYTIDGS [DCX_Y105_R102S_YF]
Screen [1, 11]: 0.9806 | Screen [3, 8]: -0.05601

Sequence: HESEIYGKVCF [CSRP3_Y57_C58G_YF]
Screen [1, 11]: -0.5157 | Screen [4, 12]: 1.394

Sequence: HFVFFYSFLLK [PTEN_Y178_R173H_YF]
Screen [1, 6]: 0.679

Sequence: HSKGIYFVQLE [MGAT4B_Y262_Q257H_YF]
Screen [1, 11]: 0.1036 | Screen [3, 8]: -0.4742 | Screen [2, 7]: -0.5096

Sequence: IFSGIYFKPES [L2HGDH_Y102_H98Y_YF]
Screen [1, 11]: 0.7627 | Screen [5]: 0.7253

Sequence: IGEVVYQWAVM [GRIN2A_Y502_R504W]
Screen [1, 11]: -0.09777 | Screen [4, 12]: 2.434

Sequence: IIEDPYFGNDF [ACP1_Y132_S137F_YF]
Screen [1, 11]: 0.7844

Sequence: KCLAVYQAGAR [APOE_Y180_R176C]
Screen [1, 11]: 2.645

Sequence: KEAQVYQAFRL [SUCLG2_Y343_K347R]
Screen [1, 6]: 0.6304 | Screen [4, 10]: 0.58

Sequence: KFDLMYAKLAF [TUBA1A_Y399_R402L]
Screen [1, 6]: 2.907

Sequence: KFDLMYAKRAF [TUBA3E_Y399_W402R]
Screen [1, 6]: -2.285 | Screen [4, 10]: -3.735

Sequence: KRNSLYSFSDH [CCDC82_Y331_Q327R]
Screen [1, 11]: -1.645 | Screen [4, 12]: -2.294

Sequence: KSDVMYTDWKK [ORM1_Y175_V174M]
Screen [1, 6]: -1.392

Sequence: KVALLYKPFFF [POLE_Y100_P99L_YF]
Screen [1, 6]: 1.635

Sequence: LCHELYNTIRD [PBRM1_Y54_V49L]
Screen [1, 6]: 1.3

Next, values leading:

Screen [3, 8]: -0.08587
Sequence: AFQGKYTPSGQ [ALDOA_Y343_C339Y_YF]

Screen [3, 9]: 1.206
Sequence: CDFKKYGKGLR [ZNF445_Y433_Y428C_YF]

Screen [3, 8]: 1.479
Sequence: DCLASYLDKVR [KRT14_Y129_R125C]

Screen [3, 8]: 0.6568
Sequence: DFTSRYLSASD [PKHD1_Y828_N830S]

Screen [5]: -0.5322
Sequence: DGQVNYEELVQ [CALM1_Y139_F142L]

Screen [5]: -0.1972
Sequence: DGQVNYEGFVQ [CALM1_Y139_E141G]

Screen [3, 8]: -0.4574
Sequence: DPHECYAKVFN [ALB_Y394_D399N]

Screen [3, 8]: -1.246
Sequence: EDAHHYLCKEV [JAK2_Y382_A377E]

Screen [3, 9]: 0.6447
Sequence: EEETDYTPVWC [UROD_Y30_G25E]

Screen [3, 8]: -0.8606
Sequence: EPAVLYNLKER [MYH7_Y103_D107E]

Screen [3, 8]: 0.1245
Sequence: ERIELYELDKK [PMM2_Y145_F144L]

Screen [3, 9]: -1.647
Sequence: FSALDYKIFFF [WDPCP_Y210_L205F_YF]

Screen (variant relative to reference peptide, measured in the pTyr-Var library screen) ([5]; sheet "EPHB1", variant seq vs reference seq, bacterial peptide display enrichment): 3.912 | Screen ([2]; effect of the variant relative to its reference peptide in the pTyr-Var library screen): 3.039
Sequence: FSPCDYQPCLA [TNS1_Y798_Y796C_YF]

Screen [5]: 0.7713 | Screen [2, 7]: 0.5582
Sequence: FTNELYMMMRD [FGFR1_Y730_C725Y_YF]

Screen [4, 12]: 4.104
Sequence: GGMTEYELVVV [KRAS_Y4_K5E]

Screen [4, 12]: -0.2857
Sequence: GHLFAYDWIRI [BEST1_Y227_S231R_YF]

Screen [3, 8]: 1.643
Sequence: GITTGYLVLKE [DNMT3B_Y588_A585T]

Screen [3, 8]: 0.08452
Sequence: GKVADYIPQLP [GLS_Y249_A254P]

Screen [5]: 1.863
Sequence: HGQVNYEEFVQ [CALM2_Y139_D134H]

Screen [3, 8]: 0.4221
Sequence: HHFAAYFQQGD [GPI_Y351_R347H]

Screen [3, 8]: 0.0101
Sequence: IKKLIYVFLVI [JAGN1_Y42_H44Y_YF]

Screen [4, 12]: 4.636
Sequence: INQGPYENHSV [ATP6V1B1_Y462_R465H]

Screen [3, 8]: 0.09357
Sequence: IVLRSYPASDH [NID2_Y449_G453D]

Screen [3, 8]: 0.4141
Sequence: IWGKKYPTCNS [PTPRZ1_Y53_N48I]

Screen [3, 8]: -1.213
Sequence: KAIMTYVFSFF [ACTN4_Y260_S262F_YF]

Screen [3, 8]: 1.628
Sequence: KICDWYQRQRP [KRT14_Y151_R148C]

Screen [3, 8]: -0.7157
Sequence: KNEVLYDEENH [ARFGEF1_Y314_G316E]

Screen [5]: 1.06 | Screen [2, 7]: 0.6623
Sequence: LAIELYVVVCK [RHO_Y136_R135L]
